The text below walks through data of article PMC10051393, “Spectroscopic and Theoretical Analysis of the Interaction between Plasma Proteins and Phthalimide Analogs with Potential Medical Application” (Life, 2023).

Experiment [1] has as its target T1, bovine serum albumin (BSA) (Bos taurus, UniProt P02769).
T1 construct: gene ALB; native commercial protein (Sigma-Aldrich), untagged mature serum albumin
The experiment is described as follows: intrinsic Trp fluorescence quenching, excitation […] nm. Type of experiment: binding. The settings on record: 297 K, pH 7.4, phosphate buffer, 1.0 μM protein, no site marker; double-log.

The subject of experiment [2] is T2, α1-acid glycoprotein (AAG); orosomucoid.
T2 construct: gene ORM1; native commercial plasma glycoprotein (Sigma-Aldrich); ORM1 is the main plasma form
The experiment is described as above. Type of experiment: binding. The settings on record: 297 K, pH 7.4, phosphate buffer, 1.0 μM protein; double-log.

T1 sequence (P02769 25-607): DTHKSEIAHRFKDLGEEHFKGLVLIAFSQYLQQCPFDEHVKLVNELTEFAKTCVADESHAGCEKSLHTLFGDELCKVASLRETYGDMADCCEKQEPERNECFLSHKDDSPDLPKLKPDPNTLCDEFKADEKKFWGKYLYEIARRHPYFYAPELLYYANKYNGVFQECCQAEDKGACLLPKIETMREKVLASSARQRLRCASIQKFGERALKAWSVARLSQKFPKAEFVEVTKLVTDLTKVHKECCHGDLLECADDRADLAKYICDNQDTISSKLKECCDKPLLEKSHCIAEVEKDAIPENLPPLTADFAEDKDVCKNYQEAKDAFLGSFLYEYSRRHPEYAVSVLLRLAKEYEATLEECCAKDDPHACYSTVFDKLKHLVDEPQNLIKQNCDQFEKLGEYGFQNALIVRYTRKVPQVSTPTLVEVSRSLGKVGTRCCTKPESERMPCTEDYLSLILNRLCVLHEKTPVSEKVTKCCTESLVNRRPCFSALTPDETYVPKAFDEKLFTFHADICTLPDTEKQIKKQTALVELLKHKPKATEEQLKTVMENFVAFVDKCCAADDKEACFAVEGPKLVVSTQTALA

Turning to `O=C1c2ccccc2C(=O)N1CN1CCN(c2ccccc2)CC1` [A, compound A], the “Binding Parameters / Kb × 10^4 [L.mol^-1]” value in experiment [1] is reported as 1.89 × 10^4 L·mol^−1. The “Binding Parameters / Kb × 10^3 [L.mol^-1]” value in experiment [2] is recorded as 4.27 × 10^3 L·mol^−1.
The matching figures for `COc1ccccc1N1CCN(CN2C(=O)c3ccccc3C2=O)CC1` [B, compound B]: 2.01 × 10^4 L·mol^−1 and 1.86 × 10^3 L·mol^−1.
Taken in the same sequence, the figures for `O=C1c2ccccc2C(=O)N1CN1CCN(c2cccc(C(F)(F)F)c2)CC1` [C, compound C] were 43.61 × 10^4 L·mol^−1 and 1.48 × 10^3 L·mol^−1.
The matching figures for `O=C1c2ccccc2C(=O)N1CN1CCN(C(c2ccccc2)c2ccccc2)CC1` [D, compound D]: 11.72 × 10^4 L·mol^−1 and 2.09 × 10^3 L·mol^−1.
